Laboratory results from publication PMC13053910, “Covalent Protein Inhibitors via Tyrosine and Tryptophan Conjugation with Cyclic Imine Mannich Electrophiles” (Angewandte Chemie (International Ed. in English), 2026).
Non-standard residues stand in square brackets, D forms with d. Residues, ends and D or L forms follow the SMILES beside them. *: point of attachment. Benzoyl(4-OPh) = O=C(c1ccc(Oc2ccccc2)cc1)*; Lys(Et2) = CCN(CC)CCCC[C@H](N)C(=O)O; Gly(cPent) = N[C@H](C(=O)O)C1CCCC1

How the values were obtained:
[1] = system: HOXA9 gene expression in THP1 cells; experiment: qRT-PCR analysis of HOXA9 gene expression in THP1 cells; format: cell-based, Human; conditions: 48 h
Procedure: Figure 7 Cellular activity of covalent, cyclic imine inhibitors to CBX8. a) qRT‐PCR analysis of HOXA9 gene expression in THP1 cells after 48 h of compound treatment at the indicated dose. N = 3. Error bars represent SD. Statistical significance was calculated using Student's t‐test. ** = p < 0.01, **** = p < 0.0001, b) qRT‐PCR analysis of HOXA9 gene expression in THP1 cells treated with increasing doses of compound for 48 h. N = 3. Error bars represent SD.
Figure S24. Cellular activity of covalent, cyclic imine inhibitors to CBX8. qRT-PCR analysis of HOXA9 gene expression in THP1 cells after 48 h of compound treatment at the indicated dose. N = 3. Error bars represent s.d. Statistical significance determined by Student’s T test. * = p <0.05, ** = p < 0.01, *** = p < 0.001, **** = p < 0.0001.
2.4 Cell Culture Cell line, Media and Culture Conditions HEK293T cells were cultured in Dubecco’s Modified Essential Media (DMEM), 10% fetal bovine serum (FBS, JR Scientific), 1% glutagro (Corning), 1% penicillin/streptomycin (Corning), 1% sodium pyruvate (Corning). Human THP1 cells were cultured in RPMI (Gibco), 10% FBS (J R Scientific), 1% Sodium pyruvate (Invitrogen), 1% Pen/Strep (Invitrogen), 1% Glutamax (Thermo Scientific), 0.1% 2-mercaptoethanol.
Cells were harvested after 48 h for RNA extraction. […] SYBR Green Mastermix (Thermo Scientific) was used for quantitative PCR. […]

[2] = target: CBX8 ChD; parameters: method as in PMID 31755685, PMID 29309209; conditions: prior work ref 47, 48; cited from earlier work
[3] = pH 7 and 37 °C ref 39; cited from earlier work
[4] = Reaction of cyclic imine Mannich or sulfur fluoride electrophiles with Ac-Tyr-NHMe (HPLC, LC/MS); format: physicochemical; conditions: PBS pH 7, 37 °C
Procedure: To identify an appropriate warhead, we synthesized or purchased a collection of cyclic imines and incubated them with N‐acetyl‐L‐tyrosine methylamide (Ac‐Tyr‐NHMe) in PBS pH 7 at 37 °C (Table 1). The reactivity was quantified by UV integration on HPLC with LC/MS confirmation of product identity (Figure S1). […] The hydrolysis kinetics of imine 2 were characterized at pD 6 and 7.5 by NMR (Figure S3). […] The Mannich reaction mechanism involves a charged iminium intermediate, and the reaction is frequently catalyzed by Bronsted acids.^[ [36], [37] ^]
Figure 2 Second‐order rate constants for select cyclic imines and a sulfonyl fluoride with aromatic nucleophiles. Reactions were conducted under pseudo‐first‐order conditions with an excess of one reactant, as indicated. The reduction in the concentration of the limiting reactant was measured at various time points by HPLC analysis.
Figure S2: Second order rate constant determination. Reaction of (A) imine 1 (5 mM) with N-Ac-Tyr-NHMe (100 mM) at 37 °C or (B) at R.T. (C) imine 2 (5 mM) with N-Ac-Tyr-NHMe (100 mM) at 37 °C (D) imine 1 (5 mM) with indole-3-butyrate (100 mM) at 37 °C (E) imine 1 (10 mM) with 1 mM 1H-pyrrole-1-propionate (F) iminium 5 (5 mM) with N-Ac-Tyr-NHMe (100 mM) at 37 °C (G) imine 4 (5 mM) with N-Ac-Tyr-NHMe (100 mM) at 37 °C. (H) imine 11 (5 mM) with N-Ac-Tyr-NHMe (100 mM) at 37 °C. (I) imine 13 (5 mM) with N-Ac-Tyr-NHMe (100 mM) at 37 °C.
5.1 General procedure for determination of second order rate constants N-acetyl-l-tyrosine methyl amide (Ac-Tyr-NHMe) (100 mM) was incubated with 5 mM imine 1 in PBS (pH 7) at 37 °C or R.T..

Compound	IC50 [1]	Kd [2]	hydrolysis half‐life [3]	reactivity (t1/2) ([4]; electrophile 5 mM, N‐acetyl‐l‐tyrosine methyl amide 100 mM)	second‐order rate constant k2 with N‐Ac‐Tyr‐NHMe ([4]; pseudo‐first‐order conditions)
CC[C@H](C)[C@H](NC(=O)[C@@H](NC(=O)c1ccc(Oc2ccccc2)cc1)C1CCCC1)C(=O)N[C@@H](CCCCN(CC)CC)C(=O)N[C@@H](CO)C(N)=O [SW2_110A, reference compound] ({Benzoyl(4-OPh)}-[Gly(cPent)]I[Lys(Et2)]S-NH2)	> 22000 nM	800 nM			
NCCc1ccc(S(=O)(=O)F)cc1 [compound 13, 4‐(2‐aminoethyl)‐benzenesulfonyl fluoride, reference compound]			6 h	0.28 ± 0.02 h	0.0069 M⁻¹ s⁻¹
